From patent US20250195513A1, “DEGRADATION OF IRAK4 BY CONJUGATION OF IRAK4 INHIBITORS WITH E3 LIGASE LIGAND AND METHODS OF USE” (BeiGene, Ltd., priority 2022, published 2025)
Where two headings read alike, the source gives them in different places. Values belong to the molecule of their own block, whether it stands above or below them.

Biological target: T1, IRAK4 (Homo sapiens, UniProt Q9NWZ3)
T1 construct: endogenous in cells; host or cells: Karpas299
T1 sequence (Q9NWZ3 1-460): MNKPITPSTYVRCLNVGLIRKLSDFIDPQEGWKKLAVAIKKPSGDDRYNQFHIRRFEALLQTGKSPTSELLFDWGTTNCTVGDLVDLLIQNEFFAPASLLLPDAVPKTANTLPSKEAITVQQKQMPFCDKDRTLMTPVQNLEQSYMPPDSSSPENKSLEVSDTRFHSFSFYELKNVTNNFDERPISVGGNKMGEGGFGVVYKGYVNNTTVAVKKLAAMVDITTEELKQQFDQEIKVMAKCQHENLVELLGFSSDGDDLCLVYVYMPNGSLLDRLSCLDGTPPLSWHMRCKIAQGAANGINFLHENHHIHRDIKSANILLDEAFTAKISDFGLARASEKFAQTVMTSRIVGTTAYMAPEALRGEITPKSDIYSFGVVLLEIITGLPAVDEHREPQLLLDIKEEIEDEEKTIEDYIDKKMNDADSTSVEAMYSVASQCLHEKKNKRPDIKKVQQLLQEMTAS
Assay: IRAK4 Degradation Assay (Karpas299, HTRF/TR-FRET)
Assay type: cell-based
Description: IRAK4 degradation was measured using a TR-FRET-based method (Degorce, François, et al. Current chemical genomics. 2009, 3: 22). Karpas299 maintained in RPMI 1640 medium (Thermo Scientific) supplemented with 20% fetal bovine serum (FBS, Thermo Scientific), 100 units/mL penicillin and 0.1 mg/mL streptomycin (Thermo Scientific) were seeded into 96-well plates at the density of 0.2 million cells per well and then treated with a series dilution of compounds. After 24 hours or 5 hours treatment, cells were pelleted via centrifugation and 40 μL lysis buffer (Cisbio) was added to each well after removal of the supernatant. Plates were then incubated at room temperature with shaking for 30 minutes. A total of 16 μL of cell lysates from each well of a 96-well plate was transferred to a 384-well white assay plate. IRAK4 level was quantitated using the HTRF kit as described by the manufacturer manual (Cisbio). FRET signals were measured using a PHERAstar FSX reader (BMG Labtech).
After treatment, add HTRF lysis buffer to each well; seal the plate and incubate 1 hour at room temperature on a plate shaker; Once the cells are lysed, 16 μL of cell lysate are transferred to a PE 384-well HTRF detection plate; 4 μL of pre-mixed HTRF antibodies are added to each well; Cover the plate with a plate sealer, spin 1000 rpm for 1 min, Incubate overnight at room temperature; Read on BMG PheraStar with HTRF protocol (337 nm-665 nm-620 nm).
The inhibition (degradation) percentage of the compound was calculated by the following equation: […]
The IC50 (DC50) value of a compound can be obtained by fitting the following equation
Wherein, X and Y are known values, and IC50, Hillslope, Top and Bottom are the parameters obtained by fitting with software. Y is the inhibition percentage (calculated from the equation), X is the concentration of the compound; IC50 is the concentration of the compound when the […] is reached. The smaller the IC50 value is, the stronger the inhibitory ability of the compound is. Vice versa, the higher the IC50 value is, the weaker the ability the inhibitory ability of the compound is; Hillslope represents the slope of the fitted curve, generally around 1 *; Bottom represents the minimum value of the curve obtained by data fitting, which is generally 0%±20%; Top represents the maximum value of the curve obtained by data fitting, which is generally 100%±20%. The experimental data were fitted by calculating and analyzing with Dotmatics data analysis software.

[1] = Karpas-299 cells, 24 h treatment, maximum percentage of degradation, read-out: IRAK4 in Karpas-299 (24 h) Dmax (%)
[2] = Karpas-299 cells, 24 h treatment, read-out: IRAK4 in Karpas-299 (24 h) DC50
[3] = Karpas-299 cells, 5 h treatment, maximum percentage of degradation, read-out: IRAK4 in Karpas-299 (5 h) Dmax (%)
[4] = Karpas-299 cells, 5 h treatment, read-out: IRAK4 in Karpas-299 (5 h) DC50

Compound: COc1cc2nn(C3CCN(C4CN(C(=O)C5CN(c6cc(F)c([C@H]7CCC(=O)NC7=O)c(F)c6)C5)C4)CC3)cc2cc1NC(=O)c1cccc(C(F)(F)F)n1 [Example 41, (R)—N-(2-(1-(1-(1-(4-(2,6-dioxopiperidin-3-yl)-3,5-difluorophenyl)azetidine-3-carbonyl)azetidin-3-yl)piperidin-4-yl)-6-methoxy-2H-indazol-5-yl)-6-(trifluoromethyl)picolinamide]
Dmax [1]: 95% | DC50 [2]: 1.1 nM

Compound: CC(C)(O)c1cc2nn([C@H]3CC[C@H](N4CCN(C(=O)[C@@H]5CCN(c6cc(F)c([C@H]7CCC(=O)NC7=O)c(F)c6)C5)CC4)CC3)cc2cc1NC(=O)c1cccc(C(F)(F)F)n1 [Example 39, N-(2-((1R,4r)-4-(4-((R)-1-(4-((R)-2,6-dioxopiperidin-3-yl)-3,5-difluorophenyl)pyrrolidine-3-carbonyl)piperazin-1-yl)cyclohexyl)-6-(2-hydroxypropan-2-yl)-2H-indazol-5-yl)-6-(trifluoromethyl)picolinamide]
Dmax [3]: 96% | DC50 [4]: 4.6 nM | Dmax [1]: 99% | DC50 [2]: 0.8 nM

Compound: COc1cc2nn(C3CCN(C4CCN(C(=O)C5CN(c6ccc(N7CCC(=O)NC7=O)cc6)C5)CC4)CC3)cc2cc1NC(=O)c1cccc(C(F)(F)F)n1 [Example 44, N-(2-(1′-(1-(4-(2,4-dioxotetrahydropyrimidin-1(2H)-yl)phenyl)azetidine-3-carbonyl)-[1,4′-bipiperidin]-4-yl)-6-methoxy-2H-indazol-5-yl)-6-(trifluoromethyl)picolinamide]
Dmax [1]: 99% | DC50 [2]: 9.3 nM

Compound: NC(=O)c1nn([C@H]2CC[C@H](N3CCN(C(=O)C4CN(c5cc(F)c([C@H]6CCC(=O)NC6=O)c(F)c5)C4)CC3)CC2)cc1NC(=O)c1coc(-c2ccnc(NCC(F)(F)F)c2)n1 [Example 11, N-(3-carbamoyl-1-((1r,4r)-4-(4-(1-(4-((R)-2,6-dioxopiperidin-3-yl)-3,5-difluorophenyl)azetidine-3-carbonyl)piperazin-1-yl)cyclohexyl)-1H-pyrazol-4-yl)-2-(2-((2,2,2-trifluoroethyl)amino)pyridin-4-yl)oxazole-4-carboxamide]
Dmax [3]: 94% | DC50 [4]: 2.4 nM | Dmax [1]: 97% | DC50 [2]: 1.6 nM

Compound: COc1cc2nn([C@H]3CC[C@H](CN4CCN(C(=O)C5CCN(c6ccc(N7CCC(=O)NC7=O)cc6)CC5)CC4)CC3)cc2cc1NC(=O)c1cccc(C(F)(F)F)n1 [Example 7, N-(2-((1r,4r)-4-((4-(1-(4-(2,4-dioxotetrahydropyrimidin-1(2H)-yl)phenyl)piperidine-4-carbonyl)piperazin-1-yl)methyl)cyclohexyl)-6-methoxy-2H-indazol-5-yl)-6-(trifluoromethyl)picolinamide]
DC50 (Degradation (Karpas-299), comparison table, Linker Type A, read-out: Compound (Linker Type A) DC50): 137 nM | Dmax (Degradation (Karpas-299), comparison table, Linker Type A, read-out: Compound (Linker Type A) Dmax (%)): 66% | Dmax [1]: 66% | DC50 [2]: 137 nM

Compound: O=C1CCN(c2ccc(N3CC(C(=O)N4CCN([C@H]5CC[C@H](n6cc(NC(=O)c7coc(-c8ccnc(NCC(F)(F)F)c8)n7)c(C(F)F)n6)CC5)CC4)C3)cc2)C(=O)N1 [Example 13, N-(3-(difluoromethyl)-1-((1r,4r)-4-(4-(1-(4-(2,4-dioxotetrahydropyrimidin-1(2H)-yl)phenyl)azetidine-3-carbonyl)piperazin-1-yl)cyclohexyl)-1H-pyrazol-4-yl)-2-(2-((2,2,2-trifluoroethyl)amino)pyridin-4-yl)oxazole-4-carboxamide]
Dmax [3]: 84% | DC50 [4]: 7.5 nM | Dmax [1]: 94% | DC50 [2]: 2.7 nM

Next, values leading:

Dmax [1]: 91% | DC50 [2]: 4.8 nM
Compound: N#Cc1cnn2c(C(=O)Nc3cc4cn([C@H]5CC[C@H](N6CCN(C7CN(c8cc(F)c([C@H]9CCC(=O)NC9=O)c(F)c8)C7)CC6)CC5)nc4c4c3OC(F)(F)O4)ccc2c1 [Example 385, 3-cyano-N-(2-((1R,4r)-4-(4-(1-(4-((R)-2,6-dioxopiperidin-3-yl)-3,5-difluorophenyl)azetidin-3-yl)piperazin-1-yl)cyclohexyl)-7,7-difluoro-2H-[1,3]dioxolo[4,5-g]indazol-5-yl)pyrrolo[1,2-b]pyridazine-7-carboxamide]

Dmax [1]: 58% | DC50 [2]: 252 nM
Compound: CC(C)(O)c1cc2nn([C@H]3CC[C@H](N4CCN(CC(=O)N[C@@H](Cc5ccccc5)C(=O)NC5CCC(=O)NC5=O)CC4)CC3)cc2cc1NC(=O)c1ccc2cc(C#N)cnn12 (stereo partly drawn) [Example 439, 3-cyano-N-(2-((1S,4r)-4-(4-(2-(((2S)-1-((2,6-dioxopiperidin-3-yl)amino)-1-oxo-3-phenylpropan-2-yl)amino)-2-oxoethyl)piperazin-1-yl)cyclohexyl)-6-(2-hydroxypropan-2-yl)-2H-indazol-5-yl)pyrrolo[1,2-b]pyridazine-7-carboxamide]

Dmax [1]: 94% | DC50 [2]: 1.6 nM
Compound: CC(C)(O)c1cc2nn([C@H]3CC[C@H](N4CCN(C(=O)[C@@H]5CCN(c6cc(F)c([C@H]7CCC(=O)NC7=O)c(F)c6)C5)CC4)CC3)cc2cc1NC(=O)c1ccc2c(n1)C(F)(F)CCC2 [Example 172, N-(2-((1R,4r)-4-(4-((R)-1-(4-((R)-2,6-dioxopiperidin-3-yl)-3,5-difluorophenyl)pyrrolidine-3-carbonyl)piperazin-1-yl)cyclohexyl)-6-(2-hydroxypropan-2-yl)-2H-indazol-5-yl)-8,8-difluoro-5,6,7,8-tetrahydroquinoline-2-carboxamide]

Dmax [3]: 88% | DC50 [4]: 12 nM | Dmax [1]: 100% | DC50 [2]: 1.7 nM
Compound: O=C1CCC(c2ccc(N3CC(C(=O)N4CCN([C@H]5CC[C@H](n6cc(NC(=O)c7coc(-c8ccnc(NCC(F)(F)F)c8)n7)c(C(F)F)n6)CC5)CC4)C3)cc2)C(=O)N1 (stereo partly shown) [Example 175, N-(3-(difluoromethyl)-1-((1r,4r)-4-(4-(1-(4-(2,6-dioxopiperidin-3-yl)phenyl)azetidine-3-carbonyl)piperazin-1-yl)cyclohexyl)-1H-pyrazol-4-yl)-2-(2-((2,2,2-trifluoroethyl)amino)pyridin-4-yl)oxazole-4-carboxamide]

Dmax [1]: 94% | DC50 [2]: 8.9 nM
Compound: CC(C)c1cc(-c2nc(C(=O)Nc3cn([C@H]4CC[C@H](N5CCN(C(=O)C6CN(c7cc(F)c([C@H]8CCC(=O)NC8=O)c(F)c7)C6)CC5)CC4)nc3C(F)F)co2)ccn1 [Example 86, N-(3-(difluoromethyl)-1-((1r,4r)-4-(4-(1-(4-((R)-2,6-dioxopiperidin-3-yl)-3,5-difluorophenyl)azetidine-3-carbonyl)piperazin-1-yl)cyclohexyl)-1H-pyrazol-4-yl)-2-(2-isopropylpyridin-4-yl)oxazole-4-carboxamide]

Dmax [3]: 88% | DC50 [4]: 16 nM | Dmax [1]: 98% | DC50 [2]: 6.3 nM
Compound: COc1cc2nn(C3CCN(C4CCN(C(=O)C5CN(c6cc(F)c([C@H]7CCC(=O)NC7=O)c(F)c6)C5)CC4)CC3)cc2cc1NC(=O)c1cccc(C(F)(F)F)n1 [Example 45, (R)—N-(2-(1′-(1-(4-(2,6-dioxopiperidin-3-yl)-3,5-difluorophenyl)azetidine-3-carbonyl)-[1,4′-bipiperidin]-4-yl)-6-methoxy-2H-indazol-5-yl)-6-(trifluoromethyl)picolinamide]

Dmax [3]: 90% | DC50 [4]: 4 nM | Dmax [1]: 99% | DC50 [2]: 0.4 nM
Compound: CC(C)(O)c1cc2nn(C3CCN(C4CCN(C(=O)C5CN(c6cc(F)c([C@H]7CCC(=O)NC7=O)c(F)c6)C5)CC4)CC3)cc2cc1NC(=O)c1cccc(C(F)(F)F)n1 [Example 160, (R)—N-(2-(1′-(1-(4-(2,6-dioxopiperidin-3-yl)-3,5-difluorophenyl)azetidine-3-carbonyl)-[1,4′-bipiperidin]-4-yl)-6-(2-hydroxypropan-2-yl)-2H-indazol-5-yl)-6-(trifluoromethyl)picolinamide]
